Data as given in patent US8242086B2, “Methods and compositions for treating disorders caused by a deficiency in a gene product of a CLN gene” (Duke University, priority 2008, dated 2012).
Entries after “also recorded” stand apart in the source; their conditions may differ.

How the values were obtained:
[1] = Intraperitoneal GalCer injection of normal mice, GalCer mass in kidney subcellular fractions (TLC); assay type: in vivo, mouse; conditions: intraperitoneal injection (α-GalCer), two days prior to sacrifice
Excerpt: Mouse experiments. Six homozygous Cln3^Δex7/8 adult 60 day old mice and six age and sex-matched control mice were deeply anesthetized by xylazine/ketamine and sacrificed by cardiac perfusion of ice-cold phosphate-buffered saline (PBS, pH 7.4), followed by periodate-lysine-phosphate (PLP) fixative (2% paraformaldehyde, 0.01M sodium periodate and 0.1M lysine phosphate buffer, pH 7.4). Mouse brains were snap-frozen in liquid nitrogen. Three of the frozen brains from each group were used for subcellular fractionation and thin layer chromatography, and frozen sections were obtained for fluorescence immunocytochemistry from the rest. At the age of 60 days and two days prior to sacrifice, three of six control mice were injected with α-GalCer at a dose of […] or vehicle intraperitoneally. They were deeply anesthetized by xylazine/ketamine and sacrificed by cardiac perfusion of ice-cold phosphate-buffered saline (PBS, pH 7.4), followed by periodate-lysine-phosphate (PLP) fixative (2% paraformaldehyde, 0.01M sodium periodate and 0.1M lysine phosphate buffer, pH 7.4). […]
Thin Layer Chromatography for Quantification of Galactosylceramide. […] Lipid quantification was accomplished with ImageQuant™ program and normalized with respect to phosphate content.

[2] = system: CLN3-deficient (JNCL) cells; experiment: Growth of CLN3-deficient (JNCL) cells treated with GalCer, Trypan blue dye exclusion; assay type: cell-based, human
Procedure: Cell Culture. Lymphoblasts are grown at 37° C. and in 5% CO2 in RPMI 1640 medium (Sigma-Aldrich, St Louis, Mo.)/10% fetal bovine serum and 1% antibiotic/antimycotic. Immortalized lymphoblast cell lines originally obtained from JNCL and other NCL patients and normal donors, were used for all experiments. Fibroblasts from normal and mnd (CLN8-deficient) mice were also used. All JNCL lymphoblasts used are homozygous for the 1.02 kb deletion in the genomic DNA.
Treatment of CLN3-deficient (JNCL) cells with GalCer increases growth rates. 0.1 million CLN3−/− cells were plated per well in 6 well plates. harvested and counted at 24, 48, 72 and 96 hours. Numbers of viable cells were determined with Trypan blue dye exclusion.

CLN8 protein = experiment: Protein-lipid overlay assay, CLN8 protein; assay type: binding; conditions: lysates from normal cells, custom made sphingostrips
Procedure: (§1) Protein-lipid overlay assay. Membrane arrays (SPHINGOSTRIPS (Echelon Research Laboratories, Salt Lake City, Utah), or lipids were spotted on nitrocellulose membranes and dried for at least one hour. Membranes were blocked with 3% (wt/vol) Fatty Acid Free or FFA-BSA (Sigma-Aldrich, St. Louis, Mo.) in Tris-Buffered Saline Tween-20 (TBST) [150 mM NaCl/10 mM Tris.HCl (pH 8.0), and 0.1% (vol/vol) Tween-20] for 1 h at RT. Blocked membranes were incubated for 8 h at 4° C. with 2 mg/ml of total cell lysate.
(§2) Fibroblasts overexpressing CLN3p (AC1 cells) and JNCL fibroblasts were used for the GalCer-CLN3 binding assay. The membranes were then washed five times for 5 min each with TBST. After washing, membranes were incubated with anti-CLN3, CLN1, CLN2, CLN6 or CLN8-antibodies overnight at 1:1000 dilution, followed by additional washing and incubation with horseradish peroxidase-conjugated anti-rabbit IgG goat antibody for 1 h at RT. After a final washing, enhanced chemiluminescence was used to detect binding of NCL proteins to sphingolipids. Intensity values were computed with an ImageJ software program.
CLN1, CLN2, CLN6, CLN8 and CLN9 proteins also bind to lipids. […]

mutant CLN3p = experiment: Protein-lipid overlay assay, mutant CLN3p (JNCL cell lysate); assay type: binding, human; conditions: lysate of JNCL cells, anti-CLN3 antibody
Procedure: as §1, §2
Binding of CLN3 to GalCer and sulfatide. Membranes impregnated with sphingolipids were overlaid with protein cell lysates from CLN3-overexpressing and JNCL cells. Anti-CLN3 antibody was used to evaluate binding. […]

[3] = investigated as a cancer therapy; cited from earlier work

galactosylceramide [GalCer]
kidney Golgi GalCer [1]: concomitant reduction in Golgi GalCer; also recorded: concomitant drop in Golgi GalCer | kidney lipid raft (plasma membrane) GalCer [1]: increase GalCer at the plasma membrane; also recorded: increases kidney lipid raft GalCer | growth of JNCL cells ([2]; GalCer 50 ng/ml, counted at 24, 48, 72 and 96 hours): restored growth | growth of JNCL cells ([2]; GalCer 100 ng/ml (doubled concentration)): no effect | binding of CLN8 protein to lipid (CLN8 protein): bind | binding of mutant CLN3 to membrane spots impregnated with the lipid (mutant CLN3p): failed to do so | safety in humans [3]: documented to be safe in humans
